# Data as given in patent US20140220640A1, “METHOD FOR MANUFACTURING DETOXIFICATED LIGNOCELLULOSIC BIOMASS HYDROLYSATE WITH DECREASED OR ELIMINATED TOXICITY AND METHOD FOR MANUFACTURING ORGANIC OR AND BIOFUEL USING THE SAME” (KOREA INSTITUTE OF SCIENCE AND TECHNOLOGY, priority 2011, published 2014).
# System: Clostridium tyrobutyricum (ATCC 25755)
# Experiment: Growth of Clostridium tyrobutyricum in batch culture (absorbance at 600 nm)
# Format: cell-based
# Conditions: 1 g/L phenolic compound in medium, vs control with no phenolic compound; FIG. 3
# Protocol: (§1) In order to investigate the effect of phenolic compounds on the growth of microorganisms and production of butanol or butyric acid by the microorganisms, microorganisms were cultured in a medium containing phenolic compounds and the cell weight of the microorganisms and the concentration of produced butanol and butyric acid was measured.
# (§2) A butyric acid fermentation medium included 20 g of glucose, 5 g of yeast extract, 0.2 g of magnesium sulfate, 0.01 g of manganese sulfate, 0.01 g of iron sulfate, 0.01 g of sodium chloride, 0.5 g of monopotassium phosphate (KH2PO4), 0.5 g of dipotassium phosphate (K2HPO4) and 2 g of ammonium acetate per liter. And, a butanol fermentation medium included 20 g of glucose, 5 g of yeast extract, 0.2 g of magnesium sulfate, 0.01 g of manganese sulfate, 0.01 g of iron sulfate, 0.01 g of sodium chloride, 0.5 g of monopotassium phosphate (KH2PO4), 0.5 g of dipotassium phosphate (K2HPO4) and 2 g of ammonium acetate per liter. Each medium was flushed with argon gas and sterilized at 121° C. for 15 minutes before measurement. Initial pH was adjusted to 6.8 with 1 N potassium hydroxide (KOH).
# p-Coumaric acid, ferulic acid, syringaldehyde and vanillic acid, 1 g/L each, were added to the medium as phenolic compounds. A medium with no phenolic compound added was used as control.
# Butyric acid fermentation was conducted using Clostridium tyrobutyricum (American Type Culture Collection, ATCC 25755) after culturing for two passages. Butanol fermentation was conducted using Clostridium acetobutylicum (ATCC 824) and Clostridium beijerinckii (National Collection of Industrial, Marine and Food Bacteria, NCIMB 8052) after culturing for two passages.
# Butyric acid and butanol fermentation was carried out by adding the culture fluid to a batch fermenter. Batch culture was performed by adding 20 mL of the medium to a 60-mL serum bottle, adding the culture fluid with an amount of 5% based on the medium and then incubating in a shaking incubator at 37° C. and 150 rpm.
# The growth of the microorganisms was evaluated by measuring absorbance at 600 nm using a spectrophotometer (UVmini-1240, Shimadzu).
# As the surfactant, Tween 80 (BioXtra, Sigma, viscous liquid) was used. The phenolic compound and Tween 80 were added at an amount of 1 g/L to the medium of Example 1. A medium with no phenolic compound or Tween 80 added was used as control.
# The growth of Clostridium tyrobutyricum (ATCC 25755) and production of butyric acid thereby in the medium containing the phenolic compounds, 1 g/L each, and 1 g/L of Tween 80 were measured.
# Other experimental conditions were the same as in Example 1.
# 1 g/L of lignin (alkali, Sigma Aldrich 471003) was added to the medium of Example 1 instead of the phenolic compounds. […]
row,SMILES,inhibiting the growth of the microorganism
1,COc1cc(/C=C/C(=O)O)ccc1O [ferulic acid],74%
2,"O=C(O)/C=C/c1ccc(O)cc1 [p-coumaric acid, p-Coumaric acid]",99%
3,COc1cc(C=O)cc(OC)c1O [syringaldehyde],30%
4,COc1cc(C(=O)O)ccc1O [vanillic acid],48%

# System: Clostridium tyrobutyricum (ATCC 25755)
# Experiment: Production of butyric acid by Clostridium tyrobutyricum (gas chromatography)
# Format: cell-based
# Conditions: 1 g/L phenolic compound plus 1 g/L Tween 80; FIG. 4
# Protocol: as §1
# as §2, with “Each medium was flushed with argon gas and sterilized at 121° C. for 15 minutes before measurement. Initial pH was adjusted to 6.8 with 1 N potassium hydroxide (KOH).” left out
# The concentration of butyric acid and butanol was analyzed using a gas chromatography system (Agilent Technologies 6890N Network GC system) equipped with a flame ionization detector. […]
# The growth of Clostridium tyrobutyricum (ATCC 25755) and production of butyric acid thereby in the medium containing the phenolic compounds, 1 g/L each, and 1 g/L of Tween 80 were measured. […]
row,SMILES,detoxifying effect of added surfactant on butyric acid production
1,COc1cc(/C=C/C(=O)O)ccc1O [ferulic acid],higher detoxifying effect
2,"O=C(O)/C=C/c1ccc(O)cc1 [p-coumaric acid, p-Coumaric acid]",higher detoxifying effect
